Source: EP3381906A1, “COMPOUNDS FOR USE AS HEPARANASE INHIBITORS” (Leadiant Biosciences SA, priority 2017, dated 2018)

How the values were obtained:
[1] = test system: U87MG; assay: Matrigel cell invasion assay; format: cell-based, human; details: Homo sapiens, U-87 MG, Conc. 10 µM
[2] = test system: U87MG (human glioblastoma astrocytoma); assay: SRB Cell Cytotoxicity Assay; format: cell-based; details: U-87 MG, treated for 72h, read-out: Concentration of test compounds at which the cell growth is inhibited by 50 % U87MG
Source text: SRB Cell Cytotoxicity Assay is an assay based upon the quantitative staining of cellular proteins by sulforhodamine B (SRB). This assay can be used for high-throughput drug screening (Vichai & Kirkitara, Nature Protocol. 2006, 1, 112). Sulforhodamine B is an anionic aminoxanthene dye that forms an electrostatic complex with the basic amino acid residues of proteins under moderately acid conditions, which provides a sensitive linear response.
To assess a putative antiproliferative activity of the selected compounds, HT1080 (human fibrosarcoma), U87MG (human glioblastoma astrocytoma) and U2OS (human osteosarcoma) cell lines were treated for 72h, in triplicate, with increasing concentrations of heparanase inhibitors. Inhibition of cell proliferation was then measured by the classical colorimetric SRB Cell Cytotoxicity assay. Absorbance was measured by spectrophotometer at a wavelength of 510 nm and cell proliferation was determined as percent with respect to control cells (cells treated with the vehicle alone). EC50 values were then determined by GraphPad Prism.

[3] = test system: FGF-1; assay: Real-Time Quantitative PCR of pro-angiogenic genes in HT1080 cells; format: cell-based, human; details: 24 h, Conc 10.0 uM
Description: (§1) To evaluate the effect of heparanase inhibitors on the tumor transcription of genes encoding for proangiogenic factors, such as FGF1/2, VEGF, MMP-9, HSPE-1, the relative mRNA levels were analyzed by quantitative Real-Time Quantitative PCR. To perform the assay, HT1080 (human fibrosarcoma) cells were cultured in complete medium containing 10%FCS (fetal calf serum). Cells were plated in 24-well plates and treated at fixed concentration (i.e., highest non-toxic concentration) of test compounds. After 24 h, cells were detached, collected and total RNA extracted by RNeasy Mini Kit (QIAGEN). Following reverse transcription step, FGF1/2, VEGF, MMP-9, HSPE-1 mRNA levels, were quantified by qPCR using the advanced Universal SYBR Green Supermix (Bio Rad) and ABI PRISM 7900HT Thermal Cycler System (Perkin Elmer), according to the manufacturer's instructions. Appropriate no-RT and non-template controls were included in each 96-well PCR reaction, and dissociation analysis was performed at the end of each run to confirm the specificity of the reaction. Relative levels of RNA were calculated using the ddCt method. Standard curve and sample data were run in duplicate. In the Table a mean value is reported.

[4] = test system: MMP-9; assay: as above; format: cell-based, human; details: 24 h, Conc 10.0 uM
Description: as §1

[5] = test system: VEGF; assay: as above; format: cell-based, human; details: 24 h, Conc 10.0 uM
Description: as §1

[6] = test system: FGF-2; assay: as above; format: cell-based, human; details: 24 h, Conc 10.0 uM
Description: as §1

[7] = test system: HPSE-1; assay: as above; format: cell-based, human; details: 24 h, Conc 10.0 uM
Description: To evaluate the effect of heparanase inhibitors on the tumor transcription of genes encoding for proangiogenic factors, such as FGF1/2, VEGF, MMP-9, HSPE-1, the relative mRNA levels were analyzed by quantitative Real-Time Quantitative PCR. To perform the assay, HT1080 (human fibrosarcoma) cells were cultured in complete medium containing 10%FCS (fetal calf serum). Cells were plated in 24-well plates and treated at fixed concentration (i.e., highest non-toxic concentration) of test compounds. After 24 h, cells were detached, collected and total RNA extracted by RNeasy Mini Kit (QIAGEN). Following reverse transcription step, FGF1/2, VEGF, MMP-9, HSPE-1 mRNA levels, were quantified by qPCR using the advanced Universal SYBR Green Supermix (Bio Rad) and ABI PRISM 7900HT Thermal Cycler System (Perkin Elmer), according to the manufacturer's instructions. […] Relative levels of RNA were calculated using the ddCt method. Standard curve and sample data were run in duplicate.

[8] = test system: HT1080 (human fibrosarcoma); assay: Matrigel cell invasion assay; format: cell-based; details: HT-1080, HT1080, Conc. 10 µM
Description: Heparanase inhibitors were then evaluated for their activity on the invasive potential of HT1080 (human fibrosarcoma) human cell lines, using the Matrigel cell invasion assay which allows to assess the cell invasion ability of malignant and normal cells.
Invasion assay was performed using BioCoat cell culture inserts (BioCoat 8.0µm PET Membrane 24 Well Permeable Supports, Corning). Filters were coated with 100 µl of 300 µg/ml Matrigel dissolved in coating buffer (0.01M Tris pH 8.0, 0.7% NaCl) (Becton-Dickinson Sciences). DMEM (Dulbecco's Modified Eagle's Medium) containing 5% FBS was added to the lower chambers. Cells were pre-treated with heparanase inhibitors for 24 h, detached and added to the upper chambers in media containing the inhibitors. Cells were allowed to invade for 24 h at 37°C in a CO2 incubator and then unmigrated cells were removed from the upper chamber with a cotton swab. The invading cells were fixed, stained with 0.1% crystal violet for 10 min at room temperature, photographed and counted under inverted microscope.
Test compounds were analyzed at fixed concentration for several fields, in duplicates. Activity of test compounds was compared to the reference compound. Activity of most interesting compound was confirmed in a second cell invasion assay. Data were expressed as the percent invasion with respect to cell migration through uncoated insert membrane. (Table 5)

[9] = biological target: T1, heparanase (Homo sapiens, UniProt Q9Y251); assay: AGA*IA assay: heparanase-catalyzed fondaparinux cleavage, colorimetric (WST-1); format: biochemical; details: 2.5 nM heparanase, 100 µM fondaparinux, pH 5.0, 3 h at 37°C; class symbols; read-out: AGAIA assay (IC50)
T1 construct: 100 µM fondaparinux, 2.5 nM heparanase and serial dilutions of test compounds
T1 sequence (Q9Y251 158-543 limits assumed): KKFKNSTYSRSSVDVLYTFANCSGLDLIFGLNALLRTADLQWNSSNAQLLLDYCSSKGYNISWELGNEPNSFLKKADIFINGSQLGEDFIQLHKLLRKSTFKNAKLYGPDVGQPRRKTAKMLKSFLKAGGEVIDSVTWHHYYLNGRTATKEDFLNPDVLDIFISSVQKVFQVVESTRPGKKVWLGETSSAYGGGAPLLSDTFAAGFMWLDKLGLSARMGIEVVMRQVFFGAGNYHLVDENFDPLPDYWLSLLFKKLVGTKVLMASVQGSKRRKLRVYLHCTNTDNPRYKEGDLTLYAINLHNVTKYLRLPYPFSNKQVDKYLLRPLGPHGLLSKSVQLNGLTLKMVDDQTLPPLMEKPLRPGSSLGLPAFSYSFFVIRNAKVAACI
T1 sequence (Q9Y251 36-109 limits assumed): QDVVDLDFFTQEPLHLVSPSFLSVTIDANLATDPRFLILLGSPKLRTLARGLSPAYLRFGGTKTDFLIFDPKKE
Description: All compounds were tested in a simple, accurate and robust microplate assay based on the cleavage of the synthetic heparin fragment, the pentasaccharide Fondaparinux (AGA*IA). This assay was originally developed by Hammond and coworkers [Hammond E, Li CP, Ferro V. Development of a colorimetric assay for heparanase activity suitable for kinetic analysis and inhibitor screening. […] Fondaparinux is cleaved by heparanase to generate a reducing disaccharide, which can be quantitatively measured via a colorimetric or a fluorescence assay, the last by the fluorescent sensor polymer-H [Schiemann S, Lühn S, Alban S. Development of both colorimetric and fluorescence heparinase activity assays using fondaparinux as substrate.
The assay measures the appearance of the disaccharide product of heparanase-catalyzed fondaparinux cleavage colorimetrically using the tetrazolium salt WST-1. Assay was essentially performed as described with minor modifications. Briefly, NUNC ELISA 96-well plates were pre-treated with a solution of 4% BSA (bovin serum albumin) in phosphate-buffered saline containing 0.05% Tween 20 (PBST), for 2 h at 37°C, then washed three times with PBST, dried by tapping on paper towel and stored at -20°C. Before use, once again, the plates were washed with PBST.
Then, the absorbance at 560 nm was measured through a microplate reader (Victor 3, Perkin Elmer).
Finally, the measurements were corrected by subtracting both the reagent background and the inner absorbance value of test compound.

COc1cc(N=Nc2cc(S(=O)(=O)O)cc3cc(S(=O)(=O)O)cc(O)c23)c(C)cc1NC(=O)Nc1cc(C)c(N=Nc2cc(S(=O)(=O)O)cc3cc(S(=O)(=O)O)cc(O)c23)cc1OC [SST0597]
inhibition at 10 µM [1]: < 50% | EC50 [2]: > 10000 nM | Gene Expression (% mRNA vs. control) FGF-1 [3]: ∼ 100% | Gene Expression (% mRNA vs. control) MMP-9 [4]: ∼ 69% | Gene Expression (% mRNA vs. control) VEGF [5]: ∼ 100% | Gene Expression (% mRNA vs. control) FGF-2 [6]: ∼ 82% | Gene Expression (% mRNA vs. control) HPSE-1 [7]: ∼ 100% | inhibition at 10 µM [8]: > 90% | IC50 [9]: 50 to 490 nM
